Laboratory results from publication PMC11110727, “Exploiting thiol-functionalized benzosiloxaboroles for achieving diverse substitution patterns – synthesis, characterization and biological evaluation of promising antibacterial agents” (RSC Medicinal Chemistry, 2024).
Values after ≈ are worked out from the molar mass of the structure shown. Like-named read-outs stand apart in the source and are kept apart here.

Columns and labels:
S. aureus ATCC 6538P = experiment: Antibacterial activity: MIC/MBC determination and disc-diffusion; format: cell-based, Staphylococcus aureus; details: S. aureus ATCC 6538P; for diameter of inhibition zone: disc-diffusion, — = zone not observed; for MBC / MIC: Staphylococcus aureus, ATCC6538P; for MIC: read-out: MIC
Method: (§1) Direct antimicrobial activity was determined against the following standard strains: (1) Gram-positive cocci: methicillin-sensitive Staphylococcus aureus ATCC 6538P (MSSA), methicillin-resistant S. aureus subsp. aureus ATCC 43300 (MRSA), S. epidermidis ATCC 12228, Enterococcus faecium ATCC 6057, E. faecalis ATCC 29212, Bacillus subtilis ATCC 6633; (2) Gram-negative bacteria from Enterobacteriales order: Klebsiella pneumoniae ATCC 13883, Escherichia coli ATCC 25922, Enterobacter cloacae DSM 6234, Proteus mirabilis ATCC 12453, Serratia marcescens ATCC 13880; (3) Gram-negative non-fermentative rods: Acinetobacter baumannii ATCC 19606, Pseudomonas aeruginosa ATCC 27853, Stenotrophomonas maltophilia ATCC 12714, S. maltophilia ATCC 13637, Burkholderia cepacia ATCC 25416, Bordetella bronchiseptica ATCC 4617; (4) yeasts: Candida albicans ATCC 90028, C. krusei ATCC 6258, C. parapsilosis ATCC 22019, C. tropicalis (Castellani) Berkhout ATCC 750, C. tropicalis IBA 171, C. guilliermondii IBA 155, and Saccharomyces cerevisiae ATCC 9763. Moreover, 5 clinical strains of methicillin-resistant S. aureus were also included: NMI 664 K, NMI 1576 K, NMI 1712 K, NMI 1991 K, and NMI 2541 K. All strains were stored at −80 °C. Prior to testing, each bacterial strain was subcultured twice on tryptic soy agar TSA (bioMerieux) medium and yeast strains on Sabouraud dextrose agar (bioMerieux) for 24–48 h at 30 °C to ensure viability. The antimicrobial activity was evaluated as previously described[26] by the disc-diffusion method and the MIC determination assays according to the EUCAST (ref. [71] and [72]) and CLSI (ref. [53] and [73]) recommendations. Assessment of bactericidal (MBC) and fungicidal (MFC) activities was performed according to the CLSI recommendations.[54,74] The following reference agents were used: fluconazole (in the case of fungi), linezolid (for Gram-positive bacteria), and nitrofurantoin (for Gram-negative rods). The new benzosiloxaboroles were dissolved in DMSO (Sigma).

K. pneumoniae ATCC 13883 = experiment: Antibacterial activity: MIC/MBC, MIC with PAβN, disc-diffusion; format: cell-based, Klebsiella pneumoniae; details: K. pneumoniae ATCC 13883; for MIC: Klebsiella pneumoniae, ATCC13883, read-out: MIC; for -fold reduction of MIC in the presence of PAβN: PAβN 20 μg mL^−1, MHB + 1 mM MgSO4
Method: as §1, with “The following reference agents were used: fluconazole (in the case of fungi), linezolid (for Gram-positive bacteria), and nitrofurantoin (for Gram-negative rods).” left out
Considering that the MDR efflux pumps often contribute to Gram-negative rod resistance, the MIC values of studied agents, with or without the pump inhibitor, PAβN (20 μg mL^−1) (Sigma), were determined.[75] The MIC was determined using Mueller–Hinton II broth medium (MHB) (Becton Dickinson) by the broth microdilution method, according to the CLSI guideliness.[53] To minimize the influence of PAβN on the destabilization of bacterial cell covers, the tests were conducted in the presence of 1 mM MgSO4 (Sigma).[76] At least a 4-fold reduction in the MIC value after the addition of PAβN was considered significant.[56,77]

C. albicans ATCC 90028 = experiment: Antifungal activity: MIC/MFC, disc-diffusion; format: cell-based, Candida albicans; details: for diameter of inhibition zone: C. albicans ATCC 90028, (-) = zone not observed, paper discs 9 mm; for MIC: Candida albicans, ATCC90028, read-out: MIC
Method: as §1

[1] = test system: Human normal lung fibroblasts MRC-5; experiment: MTT-based viability (cytotoxicity) assay
Method: To evaluate the cytotoxic effect of the tested compounds, an MTT-based assay was performed. […] Moreover, based on available IC50 and MIC (for standard and clinical S. aureus MRSA strains) values, the selectivity index (SI) was calculated for several compounds as the IC50/MIC ratio (Table 5).[60]
MRC-5 pd30 human fibroblasts (ECACC) were cultured in MEME, Minimum Essential Medium Eagle (Merck), supplemented with 10% fetal bovine serum (Merck), 2 mM L-glutamine, antibiotics (100 U mL^−1 penicillin, 100 μg mL^−1 streptomycin, Merck) and 1% non-essential amino acids (Merck). Cells were grown in 75 cm^2 cell culture flasks (Sarstedt), in a humidified atmosphere of CO2/air (5/95%) at 37 °C. MTT-based viability assay was conducted as described previously.[26] Optical densities were measured at 570 nm using a BioTek microplate reader. All measurements were carried out in three replicates and the results expressed as a percent of viable cells versus control cells. […] The selectivity index (SI) was calculated as [drawing 30] , in accordance with previously described protocols.[60]

[2] = read-out: MBC (first MBC where Eagle effect)

SMILES	diameter of inhibition zone (S. aureus ATCC 6538P)	MBC (S. aureus ATCC 6538P; [2])	MIC (S. aureus ATCC 6538P)	MIC (K. pneumoniae ATCC 13883)	MIC (C. albicans ATCC 90028)	other results
C[Si]1(C)OB(O)c2cc(F)c(S)c(F)c21 [Compound 1e, 5,7-Difluoro-6-mercapto-1,1-dimethylbenzo[c][1,2,5]oxasilaborol-3(1H)-ol]	19 mm	25 µg/mL (≈ 102 µM)	12.5 µg/mL (≈ 50.8 µM)	> 400 µg/mL	100 µg/mL (≈ 406 µM)	diameter of inhibition zone (C. albicans ATCC 90028): 15 mm
C[Si]1(C)OB(O)c2ccc(S)c(F)c21 [Compound 2e, 7-Fluoro-6-mercapto-1,1-dimethylbenzo[c][1,2,5]oxasilaborol-3(1H)-ol]	20 mm	25 µg/mL (≈ 110 µM)	12.5 µg/mL (≈ 54.8 µM)	> 100 µg/mL	> 100 µg/mL	–
CC(=O)CCSc1c(F)cc2c(c1F)[Si](C)(C)OB2O [Compound 3, 4-((5,7-Difluoro-3-hydroxy-1,1-dimethyl-1,3-dihydrobenzo[c][1,2,5]oxasilaborol-6-yl)thio)butan-2-one]	23 mm	100 µg/mL (≈ 316 µM)	50 µg/mL (≈ 158 µM)	> 400 µg/mL	> 400 µg/mL	–
COC(=O)CCSc1ccc2c(c1F)[Si](C)(C)OB2O [Compound 4, Methyl 3-((7-fluoro-3-hydroxy-1,1-dimethyl-1,3-dihydrobenzo[c][1,2,5]oxasilaborol-6-yl)thio)propanoate]	27 mm	25 µg/mL (≈ 79.6 µM)	12.5 µg/mL (≈ 39.8 µM)	> 400 µg/mL	> 400 µg/mL	MBC (S. aureus ATCC 6538P; value after the slash, read-out: second MBC (Eagle effect)): 400 µg/mL (≈ 1270 µM); -fold reduction of MIC in the presence of PAβN (K. pneumoniae ATCC 13883): 8 -fold; diameter of inhibition zone (C. albicans ATCC 90028): 12 mm
C[Si]1(C)OB(O)c2cc(F)c(SCCC(=O)ON3C(=O)CCC3=O)c(F)c21 [Compound 5, 2,5-Dioxopyrrolidin-1-yl 3-((5,7-difluoro-3-hydroxy-1,1-dimethyl-1,3-dihydrobenzo-[c][1,2,5]oxasilaborol-6-yl)thio)propanoate]	15 mm	–	400 µg/mL (≈ 963 µM)	> 400 µg/mL	> 400 µg/mL	–
C[Si]1(C)OB(O)c2cc(F)c(SCCC(N)=O)c(F)c21 [Compound 7, 3-((5,7-Difluoro-3-hydroxy-1,1-dimethyl-1,3-dihydrobenzo[c][1,2,5]oxasilaborol-6-yl)thio)propanamide]	24 mm	–	50 µg/mL (≈ 158 µM)	> 400 µg/mL	> 400 µg/mL	–
C[Si]1(C)OB(O)c2cc(F)c(SCCC(=O)N3CCOCC3)c(F)c21 [Compound 8, 3-((5,7-Difluoro-3-hydroxy-1,1-dimethyl-1,3-dihydrobenzo[c][1,2,5]oxasilaborol-6-yl)thio)-1-morpholinopropan-1-one]	25 mm	–	50 µg/mL (≈ 129 µM)	> 400 µg/mL	> 400 µg/mL	–
C[Si]1(C)OB(O)c2cc(F)c(SCCC(=O)Nc3ncccn3)c(F)c21 [Compound 9, 3-((5,7-Difluoro-3-hydroxy-1,1-dimethyl-1,3-dihydrobenzo[c][1,2,5]oxasilaborol-6-yl)thio)-N-(pyrimidin-2-yl)propanamide]	17 mm	400 µg/mL (≈ 1010 µM)	25 µg/mL (≈ 63.2 µM)	> 400 µg/mL	> 400 µg/mL	–
C[Si]1(C)OB(O)c2cc(F)c(SCCC(=O)Nc3cnccn3)c(F)c21 [Compound 10, 3-((5,7-Difluoro-3-hydroxy-1,1-dimethyl-1,3-dihydrobenzo[c][1,2,5]oxasilaborol-6-yl)thio)-N-(pyrazin-2-yl)propanamide]	24 mm	400 µg/mL (≈ 1010 µM)	50 µg/mL (≈ 126 µM)	> 400 µg/mL	> 400 µg/mL	–
Cc1cc(NC(=O)CCSc2c(F)cc3c(c2F)[Si](C)(C)OB3O)no1 [Compound 11, 3-((5,7-Difluoro-3-hydroxy-1,1-dimethyl-1,3-dihydrobenzo[c][1,2,5]oxasilaborol-6-yl)thio)-N-(5-methylisoxazol-3-yl)propanamide]	21 mm	400 µg/mL (≈ 1000 µM)	25 µg/mL (≈ 62.8 µM)	> 400 µg/mL	> 400 µg/mL	–
C[Si]1(C)OB(O)c2ccc(SC3CC(=O)NC3=O)c(F)c21 (stereo not shown) [Compound 13, 3-((7-Fluoro-3-hydroxy-1,1-dimethyl-1,3-dihydrobenzo[c][1,2,5]oxasilaborol-6-yl)thio)pyrrolidine-2,5-dione]	20 mm	200 µg/mL (≈ 615 µM)	25 µg/mL (≈ 76.9 µM)	200 µg/mL (≈ 615 µM)	> 400 µg/mL	diameter of inhibition zone (K. pneumoniae ATCC 13883; (-) = zone not observed, paper discs 9 mm): 19 mm; -fold reduction of MIC in the presence of PAβN (K. pneumoniae ATCC 13883): 4 -fold
C[Si]1(C)OB(O)c2cc(F)c(S(=O)(=O)N3CCOCC3)c(F)c21 [Compound 29, 5,7-Difluoro-1,1-dimethyl-6-(morpholinosulfonyl)benzo[c][1,2,5]oxasilaborol-3(1H)-ol]	16 mm	400 µg/mL (≈ 1100 µM)	200 µg/mL (≈ 551 µM)	> 400 µg/mL	–	viability of MRC-5 ([1]; 6.25 µg·mL−1, 48 h): 90.1±3.4 % of control ± SD; viability of MRC-5 ([1]; 12.5 µg·mL−1, 48 h): 90.6±4.5 % of control ± SD; viability of MRC-5 ([1]; 25 µg·mL−1, 48 h): 86.8±4.3 % of control ± SD; viability of MRC-5 ([1]; 50 µg·mL−1, 48 h): 80.8±3.4 % of control ± SD; viability of MRC-5 ([1]; 100 µg·mL−1, 48 h): 74.1±0.5 % of control ± SD; viability of MRC-5 ([1]; 200 µg·mL−1, 48 h): 69.6±2.4 % of control ± SD; viability of MRC-5 ([1]; 400 µg·mL−1, 48 h): 60.4±5.2 % of control ± SD; IC50 ([1]; Homo sapiens, MRC5, 48 h): > 400 µg/mL
